According to patent US5192766A, “N-acryloylpiperazine derivatives, their preparation and their use as PAF antagonists” (Sankyo Company, Limited, priority 1989, dated 1993):

Tests used:
[1] = system: blood platelet (PAF-induced aggregation); experiment: Inhibitory effect in vitro against PAF-induced blood platelet aggregation; type: cell-based; details: Oryctolagus cuniculus, 5 min; rabbit platelet rich plasma; l-C16:0 PAF final 10^-8 ~3×10^-8 M; 5 min observation
Procedure: Inhibitory effect in vitro against PAF-induced blood platelet aggregation
Blood samples were drawn from a rabbit and one part by volume of each sample was immediately mixed with 1/9 part of a 3.8% w/v aqueous solution of sodium citrate. The samples were centrifuged at 150×G at room temperature for 15 minutes to obtain a platelet rich plasma (PRP) fraction from the upper layer. The remains were further centrifuged at 1,000×G for 15 minutes to obtain a platelet poor plasma (PPP) fraction from the upper layer. The PRP and PPP fractions were mixed appropriately, to obtain a sample in which the final count of blood platelets was adjusted to be 6×10^5 per ul. According to the method reported by Born et al. [G. V. R. Born et al.: J. Physiol. 62, 67-68 (1962)], blood platelet aggregation was determined by an increase in light transmission measured using an aggregometer. 3 ul of a solution of the test compound in dimethyl sulfoxide were added to 272 ul of PRP, and, after 1 minute, 25 ul of a physiological saline solution containing l-c16:0 PAF (at a final concentration of 10^-8 ~3×10^-8 M) were added. […] At the end of this value and the value of PAF-induced aggregation which was observed when dimethyl sulfoxide only was used without the addition of any test compound. IC50 values were calculated from the dose-response curve.

PAF-induced hypotension = experiment: Inhibition of PAF-induced hypotension; type: in vivo, Wistar-Imamichi rats; details: Rattus norvegicus, iv, 1 min; anesthetized rats; l-C16:0 PAF 10 ng/kg i.v.; test compound i.v. cumulatively, 1 min before PAF; read-out: Inhibitory effect ID50
Procedure: Inhibition of PAF-induced hypotension
The test animals used were Wistar-Imamichi rats, each weighing from 350 to 450 g, anesthetized with Inactin (90 mg/kd, intraperitoneally).
Blood pressure was continuously measured throughout the experiment through a cannula inserted into the femoral artery. Each drug sample to be tested was intravenously injected through a cannula inserted into the femoral vein.
At first, l-C16:0 PAF was injected intravenously in amounts of 10 ng/kg at each injection at intervals of 5 minutes until the degree of the hypotensive response became constant. Then, each drug sample to be treated was intravenously injected. After one minute, the same dose of PAF was administered again. The drug sample was cumulatively administered. From its inhibition rate against the PAF-induced hypotensive effect, the 50% inhibitive dose (ID50) was determined, and is regarded as an index of PAF-antagonist activity. For administration, the PAF was dissolved in physiological saline solution containing 0.25% w/v of bovine serum albumin (BSA). The compounds under test were dissolved in dimethylformamide for use.
CV-3988 is disclosed in U.S. Pat. No. 4,408,052, and is structurally related to PAF itself.
In this Table, the compounds of the invention are identified by the number of the foregoing Example in which they were prepared.

IC50 [1] [µM] | Compound | ED50 (PAF-induced hypotension) [mg/kg]
0.03 | CCCOc1cccc(/C(=C/C(=O)N2CCN(C(=O)c3cc(OC)c(OC)c(OC)c3)CC2)c2cccc(Cl)c2)c1 [Example 70, 1-[(Z)-3-(3-Propoxyphenyl)-3-(3-chlorophenyl)acryloyl]-4-(3,4,5-trimethoxybenzoyl)piperazine] | 0.0033
0.03 | CCc1ccc(/C(=C/C(=O)N2CCN(C(=O)c3cc(OC)c(OC)c(OC)c3)CC2)c2ccc(Cl)c(Cl)c2)cc1 [Example 52, 1-[(Z)-3-(3,4-Dichlorphenyl)-3-(4-ethylphenyl)acryloyl]-4-(3,4,5-trimethoxybenzoyl)piperazine] | 0.0084
0.0099 | COc1ccc(/C(=C/C(=O)N2CCN(C(=O)c3cc(OC)c(OC)c(OC)c3)CC2)c2cc(C)cc(C)c2)cc1 [Example 82, 1-[(Z)-3-(4-Methoxyphenyl)-3-(3,5-dimethylphenyl)acryloyl]-4-(3,4,5-trimethoxybenzoyl)piperazine] | 0.013
– | CCOc1ccc(/C(=C/C(=O)N2CCN(C(=O)c3cc(OC)c(OC)c(OC)c3)CC2)c2cccc(F)c2)cc1 [Example 88, 1-[(Z)-3-(4-Ethoxyphenyl)-3-(3-fluorophenyl)acryloyl]-4-(3,4,5-trimethoxybenzoyl)piperazine] | 0.092
0.18 | COc1ccc(/C(=C\C(=O)N2CCN(C(=O)c3cc(OC)c(OC)c(OC)c3)CC2)c2ccc(OC)c(OC)c2)cc1 [Example 29, 1-[(E)-3-(3,4-Dimethoxyphenyl)-3-(4-methoxyphenyl)acryloyl]-4-(3,4,5-trimethoxybenzoyl)piperazine] | 0.048
– | COc1cc(C(=O)N2CCN(C(=O)/C=C(\c3ccccc3)c3ccc4ccccc4c3)CC2)cc(OC)c1OC [Example 48, 1-[(E)-3-(2-Naphthyl)-3-phenylacryloyl]-4-(3,4,5-trimethoxybenzoyl)piperazine] | 0.012
– | CCc1ccc(/C(=C/C(=O)N2CCN(C(=O)c3cc(OC)c(OC)c(OC)c3)CC2)c2cc(Cl)cc(Cl)c2)cc1 [Example 86, 1-[(Z)-3-(4-Ethylphenyl)-3-(3,5-dichlorophenyl)acryloyl]-4-(3,4,5-trimethoxybenzoyl)piperazine] | 0.015
0.043 | COc1ccc(/C(=C/C(=O)N2CCN(C(=O)c3cc(OC)c(OC)c(OC)c3)CC2)c2cccc(C(F)(F)F)c2)cc1OC [Example 33, 1-[(E)-3-(3,4-Dimethoxyphenyl)-3-(3-trifluoromethylphenyl)acryloyl]-4-(3,4,5-trimethoxybenzoyl)piperazine] | 0.0078
0.11 | COc1ccc(/C(=C/C(=O)N2CCN(C(=O)c3cc(OC)c(OC)c(OC)c3)CC2)c2ccc(C)cc2)cc1OC [Example 35, 1-[(E)-3-(3,4-Dimethoxyphenyl)-3-(4-methylphenyl)acryloyl]-4-(3,4,5-trimethoxybenzoyl)piperazine] | 0.012
0.058 | COc1ccc(/C(=C/C(=O)N2CCN(C(=O)c3cc(OC)c(OC)c(OC)c3)CC2)c2cccc(F)c2)cc1 [Example 74, 1-[(Z)-3-(4-Methoxyphenyl)-3-(3-fluorophenyl)acryloyl]-4-(3,4,5-trimethoxybenzoyl)piperazine] | 0.0055
– | COc1ccc(/C(=C\C(=O)N2CCN(C(=O)c3cc(OC)c(OC)c(OC)c3)CC2)c2ccccc2)cc1OC [Example 8, 1-[(Z)-3-(3,4-Dimethoxyphenyl)cinnamoyl]-4-(3,4,5-trimethoxybenzoyl)piperazine] | 0.058
0.083 | CCCOc1cccc(/C(=C/C(=O)N2CCN(C(=O)c3cc(OC)c(OC)c(OC)c3)CC2)c2ccccc2)c1 [Example 76, 1-[(E)-3-(3-Propoxyphenyl)-3-phenylacryloyl]-4-(3,4,5-trimethoxybenzoyl)piperazine] | 0.0092
0.22 | COc1ccc(/C(=C\C(=O)N2CCN(C(=O)c3cc(OC)c(OC)c(OC)c3)CC2)c2ccc(C)cc2)cc1OC [Example 36, 1-[(Z)-3-(3,4-Dimethoxyphenyl)-3-(4-methylphenyl)acryloyl]-4-(3,4,5-trimethoxybenzoyl)piperazine] | 0.039
– | COc1ccc(/C(=C\C(=O)N2CCN(C(=O)c3cc(OC)c(OC)c(OC)c3)CC2)c2cccc(Cl)c2)cc1OC [Example 18, 1-[(E)-3-(3-Chlorophenyl)-3-(3,4-dimethoxyphenyl)acryloyl]-4-(3,4,5-trimethoxybenzoyl)piperazine] | 0.026
0.086 | COc1ccc(/C(=C/C(=O)N2CCN(C(=O)c3cc(OC)c(OC)c(OC)c3)CC2)c2cccc(Br)c2)cc1 [Example 73, 1-[(Z)-3-(4-Methoxyphenyl)-3-(3-bromophenyl)acryloyl]-4-(3,4,5-trimethoxybenzoyl)piperazine] | 0.0084
– | COc1cc(C(=O)N2CCN(C(=O)C=C(c3cccs3)c3cccs3)CC2)cc(OC)c1OC [Example 4, 1-[3,3-Bis(2-thienyl)acryloyl]-4-(3,4,5-trimethoxybenzoyl)piperazine] | 0.074
– | COc1ccc(/C(=C/C(=O)N2CCN(C(=O)c3cc(OC)c(OC)c(OC)c3)CC2)c2cccc(C)c2)cc1OC [Example 39, 1-[(E)-3-(3,4-Dimethoxyphenyl)-3-(3-methylphenyl)acryloyl]-4-(3,4,5-trimethoxybenzoyl)piperazine] | 0.008
0.11 | COc1ccc(/C(=C\C(=O)N2CCN(C(=O)c3cc(OC)c(OC)c(OC)c3)CC2)c2cccc(C)c2)cc1OC [Example 40, 1-[(Z)-3-(3,4-Dimethoxyphenyl)-3-(3-methylphenyl)acryloyl]-4-(3,4,5-trimethoxybenzoyl)piperazine] | –
0.038 | CCCOc1ccc(/C(=C/C(=O)N2CCN(C(=O)c3cc(OC)c(OC)c(OC)c3)CC2)c2cccc(Cl)c2)cc1 [Example 71, 1-[(Z)-3-(4-Propoxyphenyl)-3-(3-chlorophenyl)acryloyl]-4-(3,4,5-trimethoxybenzoyl)piperazine] | 0.0074
– | COc1ccc(/C(=C\C(=O)N2CCN(C(=O)c3cc(OC)c(OC)c(OC)c3)CC2)c2ccc(Cl)cc2)cc1OC [Example 16, 1-[(Z)-3-(4-Chlorophenyl)-3-(3,4-dimethoxyphenyl)acryloyl]-4-(3,4,5-trimethoxybenzoyl)piperazine] | 0.074
0.15 | COc1ccc(/C(=C/C(=O)N2CCN(C(=O)c3cc(OC)c(OC)c(OC)c3)CC2)c2ccc(OC)c(OC)c2)cc1 [Example 30, 1-[(Z)-3-(3,4-Dimethoxyphenyl)-3-(4-methoxyphenyl)acryloyl]-4-(3,4,5-trimethoxybenzoyl)piperazine] | 0.044
0.052 | CCCOc1ccc(/C(=C/C(=O)N2CCN(C(=O)c3cc(OC)c(OC)c(OC)c3)CC2)c2ccccc2)cc1 [Example 53, 1-[(E)-3-Phenyl-3-(4-propoxyphenyl)acryloyl]-4-(3,4,5-trimethoxybenzoyl)piperazine] | 0.0074
0.11 | COc1cc(C(=O)N2CCN(C(=O)/C=C(/c3cccc(C)c3)c3ccc(Cl)c(Cl)c3)CC2)cc(OC)c1OC [Example 37, 1-[(Z)-3-(3,4-Dichlorophenyl)-3-(3-methylphenyl)acryloyl]-4-(3,4,5-trimethoxybenzoyl)piperazine] | –
– | COc1ccc(/C(=C\C(=O)N2CCN(C(=O)c3cc(OC)c(OC)c(OC)c3)CC2)c2cccc(C(F)(F)F)c2)cc1OC [Example 34, 1-[(Z)-3-(3,4-Dimethoxyphenyl)-3-(3-trifluoromethylphenyl)acryloyl]-4-(3,4,5-trimethoxybenzoyl)piperazine] | 0.021
0.22 | COc1cc(C(=O)N2CCN(C(=O)C=C(c3ccc(Cl)cc3)c3ccc(Cl)cc3)CC2)cc(OC)c1OC [Example 3, 1-[3,3-Bis(4-chlorophenyl)acryloyl]-4-(3,4,5-trimethoxybenzoyl)piperazine] | 0.048
– | COc1cc(C(=O)N2CCN(C(=O)C=C(c3ccc(F)cc3)c3ccc(F)cc3)CC2)cc(OC)c1OC [Example 25, 1[Bis(4-fluorophenyl)acryloyl]-4-(3,4,5-trimethoxybenzoyl)piperazine] | 0.052
– | COc1ccc(/C(=C/C(=O)N2CCN(C(=O)c3cc(OC)c(OC)c(OC)c3)CC2)c2c(Cl)cccc2Cl)cc1 [Example 79, 1-[(Z)-3-(4-Methoxyphenyl)-3-(2,6-dichlorophenyl)acryloyl]-4-(3,4,5-trimethoxybenzoyl)piperazine] | 0.0066
